Laboratory results taken from PMC7054612, “In vitro and in vivo pharmacokinetic characterization of LMT-28 as a novel small molecular interleukin-6 inhibitor” (Asian-Australasian Journal of Animal Sciences, 2019).
Converted amounts (≈) assume the structure as drawn. Like-named read-outs stand apart in the source and are kept apart here.

Assays:
[1] = tested on: IL-6-induced STAT3 activation; experiment: Western blot analysis for inhibitory effect on IL-6-induced signaling (p-STAT3) in HepG2 cells; format: cell-based; details: HepG2 cells pre-treated with LMT-28 (1, 3, 10, 30, 100 μM) for 1 h, then IL-6 10 ng/mL for 10 min; Western blotting
Method: HepG2 cells were seeded in MEM media (Welgene, Gyeongsan, Korea) with 10% (v/v) feta bovine serum, streptomycin (100 U/mL), and penicillin (100 U/mL; Life Technologies, Carlsbad, CA, USA). After seeding, cells were starved overnight, treated with LMT-28 for 1 h, and stimulated with IL-6 (10 ng/mL; R&D Systems, Minneapolis, MN, USA) for 10 min. Cells were treated with cell lysis buffer (Promega, Madison, WI, USA) for 30 min on ice. Cell lysates were separated on an 8% sodium dodecyl sulfate-polyacrylamide gel electrophoresis gel, then transferred to nitrocellulose membranes (Schleicher & Schuell, Dassel, Germany). The membranes were blocked overnight in Tris-buffered solution (50 mM Tris-HCl [pH 7.4], 150 mM NaCl, 0.1% Tween 20) containing 5% nonfat dry milk at 4°C and then incubated for 1 h with the appropriate primary Abs against p-STAT3 (MilliporeSigma, Burlington, MA, USA) or α-tubulin in Tris-buffered solution (TBST; 50 mM Tris-HCl [pH 7.4], 150 mM NaCl, 0.1% Tween 20) containing 5% nonfat dry milk at room temperature. The membranes were washed (10 min, five times) and incubated for 1 h with horseradish peroxidase-conjugated secondary Abs diluted to 1:6,000. After 10 washes, the membranes were incubated with enhanced chemiluminescence reagents (MilliporeSigma, USA) and chemiluminescent signals were visualized using X-ray film.

[2] = Lipophilicity (LogP) by GLpKa, D-PAS method; format: physicochemical
Method: (§1) The shake-flask method was applied to measure the equilibrium solubility of LMT-28 [16, 17]. Excess amount of LMT-28 was added into the water and the suspension was shaken at 25°C during 24 h in a flask for equilibrium solubility. The solution, then, was filtered and the concentration of LMT-28 in the filtered solution was quantified using ultra HPLC (ThermoFisher Scientific, Waltham, MA, USA) at wavelength 254 nm. The lipophilicity of LMT-28 was measured by using GLpKa (Pion, Cambridge, MA, USA) based on dip-probe absorption spectroscopy (D-PAS) method. The resultant values were calculated by LogP software (Pion, USA) and the computational predictions for number of hydrogen bond donors, hydrogen bond acceptors, rotatable bonds and predicted polar surface area (PSA) and LogS were made using Percepta software (ACD/Labs; Toronto, Canada).

[3] = Equilibrium solubility in water, 24 h shake-flask method; format: physicochemical; details: thermodynamic from solid, 25°C
Method: as §1

[4] = Metabolic stability in rat liver microsomes; format: in vitro ADME; details: pH 7.4
Method: (§2) Metabolic stability using rat and human liver microsomes (Corning Gentest, USA) of LMT-28 was performed according to previous reported protocol. In brief, NADPH regeneration solution (Corning Gentest, USA) was added to initiate the metabolic reaction after mixing LMT-28 (final concentrations; 1 μM) with human or rat liver microsomes (0.5 mg protein/mL) in 100 mM potassium phosphate buffer (pH 7.4). After incubation at 37°C at 0, 10, 30, and 60 min, the reaction was terminated by adding three times of ice-cold acetonitrile containing internal standard (carbamazepine 10 ng/mL). After mixing by vortex and centrifugation at 10,000 g for 5 min at 4°C, the supernatants were transferred to fresh LC vials. Samples (5 μL) were analyzed by directly injection into a liquid chromatography-tandem mass spectrometry (LC-MS/MS) system for the quantification of LMT-28.
(§3) The metabolic half-life and in vitro intrinsic clearance of LMT-28 were calculated by next equations [19].
(§4) Half-life (t1/2) (h)=-0.693/KCLint,in vitro(μL/min/mg protein)=(0.693/t1/2,microsomal)×(μL incubation/mg microsomal protein)CLint,in vivo(mL/min/kg)=(0.693/t1/2,microsomal)×(mL incubation/mg microsomal protein)×(mg microsomal protein/g liver)×(g liver/kg body weight)
(§5) where K is the elimination rate constant of LMT-28 in the microsomal metabolic reaction, half-life (t1/2) is microsomal metabolic half-life, CLint, in vitro is in vitro intrinsic clearance, and CLint, in vivo is in vivo intrinsic clearance. The liver weight relative to the body weight in the rat and human are 40 and 21 g/kg, respectively.

[5] = Metabolic stability in human liver microsomes; format: in vitro ADME; details: pH 7.4
Method: as §2, §3, §4, §5

[6] = MDCK cell permeability assay; format: in vitro ADME, canine; details: dog, MDCK cell monolayers
Method: In order to determine cell permeability of LMT-28, Madin-Darby canine kidney (MDCK) cells were cultured and seeded at a density of 6×10^4cells/cm^2 in 12-well Transwell plates. After checking cell monolayer integrity, the transepithelial electrical resistance (TEER) values (>500 ohms) were measured using an EVOM epithelial voltohmmeter (World Precision Instruments, Sarasota, FL, USA). After pre-incubation for 30 min at 37°C, LMT-28 (final concentrations of 2, 10, and 50 μM) was added to the donor wells in transport assay system. Sample aliquots (100 μL) were collected every 30 min for 120 min, and the same volume of fresh buffer added. The aliquots were stored at −20°C until quantitative analysis of LMT-28 concentrations by LC–MS/MS system. The apparent permeability coefficient (Papp, cm/s) was calculated as following equation: […]
where dQ/dt is the permeation rate across cell monolayer, A is the surface area of the monolayer (0.33 cm^2), and C0 is the initial donor concentration.

[7] = Plasma protein binding assay; format: in vitro ADME
[8] = In vivo pharmacokinetic study in male BALB/c mice; details: for AUC(0-t): n = 4, read-out: AUC8h; for half-life: n = 4, read-out: t1/2 (terminal elimination half-life) (converted)
Method: To evaluate in vivo pharmacokinetics in mice, LMT-28 was dissolved in phosphate-buffered saline (pH 7.4) containing 5% (w/v) carboxymethyl cellulose (MilliporeSigma, USA) and administered orally by using oral needle and intravenously in the mouse tail vein at the dose of 5 mg/kg to male BALB/c mice (22 to 25 g) after overnight fasting. Blood samples (50 μL) were collected at 0.5, 1, 2, 4, 6, and 8 h after oral administration of LMT-28. After taking the blood samples from mice, the samples were centrifuged to obtain plasma samples at 4°C and 10,000 g and obtained plasma samples were stored at −20°C. These plasma samples (25 μL) were used for the quantification of LMT-28 concentration in mice.
(§6) The concentrations of LMT-28 in plasma or microsomal reaction solution were determined by LC-MS/MS. For the sample preparation before LC-MS/MS analysis, three times (75 μL) of acetonitrile containing internal standard (carbamazepine 10 ng/mL) were added to 25 μL aliquots of the plasma samples. The samples were vortex-mixed and centrifuged at 10,000 g for 5 min at 4°C for the protein precipitation. The supernatant (90 μL) was transferred to LC vials and 5 μL was injected onto a LC-MS/MS system.
(§7) Mass spectrometric detection of LMT-28 was performed on an API 4000 Qtrap mass spectrometer (AB Sciex, Foster City, CA, USA) equipped with a positive electrospray ionization source. The chromatographic separation was performed on Hypersil Gold C18 column (50 mm×2.1 mm i.d., 3 μm particle size; ThermoFisher Scientific, USA) with a flow rate of 0.3 mL/min. The positive multiple reaction monitoring (MRM) mode were based on the most abundant product ions at m/z 312 → 165 for LMT-28, and m/z 237 → 194 for internal standard. Other parameters were the nebulizing (GS1), 50 psi; heating (GS2), 50 psi; collision energy, 23 eV for LMT-28 and 15 eV for internal standard, respectively. Analyst software version 1.4.2 (AB Sciex, USA) was used for the analysis of LMT-28 concentrations.
The plasma concentrations versus time profiles of LMT-28 in mice were analyzed by a non-compartmental model using WinNonlin software ver 5.3 (Pharsight, Mountain View, CA, USA). The pharmacokinetic parameters such as area under the plasma concentration-time curve (AUC), peak plasma concentration (Cmax) and the time to reach a peak concentration (Tmax), terminal elimination half-life (t1/2), mean residence time (MRT) after oral administration were obtained from each mouse’s plasma concentration-time plots for LMT-28. All data were expressed as the mean±standard deviation. A value of p<0.05 by student t-test or analysis of variance analysis was considered to be statistically significant.

[9] = Stability during sample handling and processing for LC-MS/MS analysis in biological fluids; details: plasma or microsomal reaction solution
Method: as §6, §7

[10] = mouse, plasma, intravenous (i.v) 5 mg/kg, n = 4
[11] = mouse, plasma, intravenous (i.v) 5 mg/kg
[12] = mouse, plasma, oral (p.o.) 5 mg/kg, n = 4
[13] = mouse, plasma, oral (p.o.) 5 mg/kg

## C=C(CCCCC)[C@@H](O)[C@H](C)C(=O)N1C(=O)OC[C@@H]1C(C)C [LMT-28]
[1]
  Inhibition of IL-6-induced p-STAT3 expression: inhibit the IL-6-induced p-STAT3 expression in a dose-dependent manner
[2]
  logP: 3.65 ± 0.22
[3]
  solubility at 24 h: 390 ± 120 µg/mL (≈ 1250 µM)
[4]; rat liver microsomes 0.5 mg protein/mL, 1 μM, NADPH, 37°C, read-out: Liver microsomal stability half-life (t1/2, rat)
  half-life at 1 μM: 0.255 ± 0.0233 h
[4]; rat liver microsomes, calculated from rat microsomal half-life, read-out: In vitro intrinsic clearance CLint, in vitro (Rat)
  microsomal CLint at 1 μM: 91 ± 8.4 µL/min/mg
[4]; rat liver microsomes, scaled from rat microsomal half-life, liver weight 40 g/kg, read-out: In vivo intrinsic clearance CLint, in vivo (Rat)
  CLint scaled at 1 μM: 164 ± 15 mL/min/kg
[5]; human liver microsomes, calculated from human microsomal half-life, read-out: In vitro intrinsic clearance CLint, in vitro (Human)
  microsomal CLint at 1 μM: 64 ± 8.1 µL/min/mg
[5]; human liver microsomes, scaled from human microsomal half-life, liver weight 21 g/kg, read-out: In vivo intrinsic clearance CLint, in vivo (Human)
  CLint scaled at 1 μM: 60 ± 7.7 mL/min/kg
[5]; human liver microsomes 0.5 mg protein/mL, 1 μM, NADPH, 37°C, read-out: Liver microsomal stability half-life (t1/2, human)
  half-life at 1 μM: 0.365 ± 0.0467 h
[6]
  Papp at 120 min, 10 μM: 9.7 ± 1.8 ×10⁻⁶ cm/s
[7]; at 2 μM
  Plasma protein to which the drug is bound: mostly bound to serum albumin
[7]; plasma, read-out: Plasma protein binding (bound drug %) (converted)
  fraction unbound at 2 μM: 0.076
[8]; male, BALB/c, mouse, plasma, oral, 5 mg/kg, oral vs intravenous, 5 mg/kg, read-out: F (bioavailability)
  bioavailability: ~38.2%
[8]; [10]
  AUC(0-inf): 677 ± 264 ng·h/mL
  MRT: 1.58 ± 0.32 h
  clearance: 144 mL/min/kg
[8]; [11]
  AUC(0-t): 661 ± 253 ng·h/mL
  half-life: 1.37 ± 0.29 h
[8]; mouse, plasma, intravenous (i.v) 5 mg/kg, n = 4, read-out: Vss
  Vd: 12.9 ± 4.66 L/kg
[8]; [12]
  AUC(0-inf): 302 ± 209 ng·h/mL
  Cmax: 137 ± 100 ng/mL
  MRT: 1.9 ± 0.55 h
  Tmax: 0.8 ± 0.67 h
[8]; [13]
  AUC(0-t): 292 ± 202 ng·h/mL
  half-life: 1.13 ± 0.27 h
[8]; oral 5 mg/kg
  Share of total AUC (AUC∞) covered by AUC8h: approximately 96.7%
[9]
  Stability under sample handling and processing: stable under various conditions of sample handling and processing
